Data: the NIST ThermoML archive (doi:10.1021/je060271a)
Where “and” joins values, the source holds several entries; their conditions need not be identical. Identical values can stand only once.

Settings: 343.15 K, Liquid, Vibrating tube method

CCCCCC(=O)OCC(COC(=O)CCCCC)(COC(=O)CCCCC)COC(=O)CCCCC [pentaerythritol tetrahexanoate]
Settings | mass density
242.7 kPa | 957.2 kg/m3
242.9 kPa | 957.3 kg/m3
243.1 kPa | 957.3 kg/m3
243.2 kPa | 957.3 kg/m3 and 957.2 kg/m3
243.6 kPa | 957.2 kg/m3
243.9 kPa | 957.3 kg/m3 and 957.1 kg/m3
244.3 kPa | 957.3 kg/m3
244.5 kPa | 957.2 kg/m3 and 957.3 kg/m3
244.8 kPa | 957.3 kg/m3
245 kPa | 957.2 kg/m3 and 957.4 kg/m3
245.3 kPa | 957.3 kg/m3 and 957.2 kg/m3
245.5 kPa | 957.2 kg/m3
245.7 kPa | 957.2 kg/m3
245.9 kPa | 957.3 kg/m3
246.2 kPa | 957.4 kg/m3
246.4 kPa | 957.3 kg/m3
246.6 kPa | 957.3 kg/m3
249 kPa | 957.2 kg/m3
249.5 kPa | 957.2 kg/m3
249.9 kPa | 957.4 kg/m3
250 kPa | 957.2 kg/m3
250.2 kPa | 957.1 kg/m3
251.6 kPa | 957.3 kg/m3
251.8 kPa | 957.3 kg/m3 and 957.2 kg/m3
251.9 kPa | 957.3 kg/m3
252.3 kPa | 957.3 kg/m3 and 957.2 kg/m3
252.6 kPa | 957.1 kg/m3
252.8 kPa | 957.2 kg/m3
253.2 kPa | 957.2 kg/m3
253.3 kPa | 957.3 kg/m3 and 957.2 kg/m3 and 957.4 kg/m3
253.7 kPa | 957.2 kg/m3
254 kPa | 957.2 kg/m3
254.4 kPa | 957.2 kg/m3
254.9 kPa | 957.3 kg/m3
255.1 kPa | 957.2 kg/m3 and 957.3 kg/m3
255.4 kPa | 957.3 kg/m3
255.6 kPa | 957.4 kg/m3
256.3 kPa | 957.3 kg/m3
256.5 kPa | 957.1 kg/m3
256.6 kPa | 957.2 kg/m3
256.8 kPa | 957.2 kg/m3
257 kPa | 957.2 kg/m3
257.3 kPa | 957.3 kg/m3
257.5 kPa | 957.2 kg/m3
257.7 kPa | 957.3 kg/m3
257.9 kPa | 957.3 kg/m3
258.2 kPa | 957.2 kg/m3
259.2 kPa | 957.2 kg/m3
259.6 kPa | 957.4 kg/m3
259.9 kPa | 957.3 kg/m3
260.1 kPa | 957.3 kg/m3
260.4 kPa | 957.3 kg/m3
260.6 kPa | 957.3 kg/m3
261 kPa | 957.3 kg/m3 and 957.2 kg/m3
261.3 kPa | 957.2 kg/m3
261.5 kPa | 957.2 kg/m3
261.7 kPa | 957.2 kg/m3
261.8 kPa | 957.3 kg/m3
262.2 kPa | 957.3 kg/m3
262.5 kPa | 957.4 kg/m3
262.9 kPa | 957.4 kg/m3 and 957.2 kg/m3
263 kPa | 957.2 kg/m3
263.4 kPa | 957.1 kg/m3 and 957.4 kg/m3 and 957.3 kg/m3
263.7 kPa | 957.4 kg/m3 and 957.3 kg/m3
266.9 kPa | 957.4 kg/m3
270.7 kPa | 957.2 kg/m3
271.2 kPa | 957.3 kg/m3
273.5 kPa | 957.3 kg/m3
273.6 kPa | 957.4 kg/m3
274 kPa | 957.3 kg/m3
274.3 kPa | 957.3 kg/m3
275.2 kPa | 957.3 kg/m3
275.6 kPa | 957.4 kg/m3
275.7 kPa | 957.4 kg/m3
275.9 kPa | 957.2 kg/m3
276.1 kPa | 957.4 kg/m3
276.4 kPa | 957.2 kg/m3
276.6 kPa | 957.4 kg/m3
276.9 kPa | 957.3 kg/m3
277.3 kPa | 957.3 kg/m3
277.6 kPa | 957.3 kg/m3
278 kPa | 957.3 kg/m3
278.2 kPa | 957.2 kg/m3
278.3 kPa | 957.2 kg/m3
278.7 kPa | 957.3 kg/m3
279 kPa | 957.3 kg/m3
279.2 kPa | 957.3 kg/m3
279.4 kPa | 957.2 kg/m3
279.6 kPa | 957.2 kg/m3
285.3 kPa | 957.4 kg/m3
285.6 kPa | 957.4 kg/m3 and 957.2 kg/m3
286.1 kPa | 957.3 kg/m3
286.3 kPa | 957.3 kg/m3
286.5 kPa | 957.3 kg/m3
286.7 kPa | 957.3 kg/m3
287 kPa | 957.4 kg/m3
287.2 kPa | 957.1 kg/m3
287.4 kPa | 957.3 kg/m3
287.5 kPa | 957.2 kg/m3
287.9 kPa | 957.3 kg/m3
288.2 kPa | 957.2 kg/m3
288.6 kPa | 957.3 kg/m3
288.7 kPa | 957.2 kg/m3
288.9 kPa | 957.3 kg/m3
289.1 kPa | 957.3 kg/m3
289.4 kPa | 957.2 kg/m3
289.8 kPa | 957.2 kg/m3 and 957.3 kg/m3
291.2 kPa | 957.3 kg/m3
291.4 kPa | 957.3 kg/m3
291.5 kPa | 957.4 kg/m3 and 957.2 kg/m3
291.9 kPa | 957.4 kg/m3
292.2 kPa | 957.3 kg/m3
292.4 kPa | 957.3 kg/m3 and 957.4 kg/m3
292.7 kPa | 957.4 kg/m3
293.1 kPa | 957.3 kg/m3
293.4 kPa | 957.3 kg/m3
293.6 kPa | 957.3 kg/m3
294.6 kPa | 957.3 kg/m3
294.7 kPa | 957.3 kg/m3
296.4 kPa | 957.4 kg/m3 and 957.3 kg/m3
296.6 kPa | 957.3 kg/m3
297.1 kPa | 957.3 kg/m3
297.3 kPa | 957.3 kg/m3
297.6 kPa | 957.4 kg/m3
298 kPa | 957.4 kg/m3 and 957.3 kg/m3 and 957.2 kg/m3
298.5 kPa | 957.3 kg/m3
298.8 kPa | 957.4 kg/m3
299 kPa | 957.2 kg/m3
299.9 kPa | 957.3 kg/m3
305.4 kPa | 957.4 kg/m3
305.8 kPa | 957.2 kg/m3
306 kPa | 957.3 kg/m3
306.3 kPa | 957.4 kg/m3
306.8 kPa | 957.4 kg/m3 and 957.3 kg/m3
307.5 kPa | 957.3 kg/m3
307.9 kPa | 957.3 kg/m3
308.2 kPa | 957.3 kg/m3
308.4 kPa | 957.2 kg/m3
308.7 kPa | 957.5 kg/m3 and 957.3 kg/m3
309.1 kPa | 957.3 kg/m3
309.3 kPa | 957.3 kg/m3
309.4 kPa | 957.4 kg/m3
309.8 kPa | 957.1 kg/m3
310.6 kPa | 957.3 kg/m3
311.2 kPa | 957.3 kg/m3
